From patent US20100254965A1, “Adenosine Signaling in Diagnosis, Treatment, and Prevention of Priapism and Erectile Dysfunction” (BOARD OF REGENTS ,THE UNIVERSITY OF TEXAS SYSTEM, priority 2006, published 2010)

Assays:
[1] = tested on: corpus cavernosal strips (CCS); experiment: EFS-induced relaxation of CCS of SCD transgenic mice and controls; type: cell-based, mouse
Procedure: FIG. 21. Priapic activity seen in SCD transgenic mice is dependent on elevated adenosine in penis via A2BR signaling. (a) Adenosine levels in the penis increased in SCD transgenic mice. Perchloric acid extracts of penile tissues from SCD transgenic mice and control mice were analyzed by HPLC to determine the levels of adenosine. The data are expressed as mean±SE. *p<0.005, (control n=5 and SCD transgenic mice n=6), SCD transgenic mice versus the controls. (b) Increased corpus cavernosum strips (CCS) relaxation by electrical field stimulation (EFS) in SCD transgenic mice. Relaxation effect of EFS with different voltages (0-30V) at 30 Hz and 0.5 ms pulse width, alternating polarity between pulses, in 10 μM phenylephrine-precontracted CCS from the controls (n=5) and SCD transgenic mice (n=5). (c-e) Prolonged penile erection seen in SCD transgenic mice is due to high levels of adenosine in the penis via A2BR signaling. Average EFS-induced relaxation from the PE-precontracted CC strips of the controls and SCD transgenic mice treated without or with PEG-ADA, MRS1706 or ZM241389. EFS-induced force change (c), duration of relaxation by EFS (d) and area under basal line (e) were representative of the CCS relaxation. (n=5 for the controls and n=5 for SCD transgenic mice with or without PEG-ADA, MRS1706 or ZM241389 treatment, respectively). Data are given as means±SE. *p<0.05, SCD transgenic mice versus the controls, **p<0.05, CCS of […] with PEG-ADA, MRS1706 or ZM241389 treatment versus CCS of SCD transgenic mice without treatment; ***p<0.05, CCS of the control mice with MRS1706 and/or L-NAME treatment versus CCS of the control mice without treatment.
Sickle cell disease (SCD) transgenic mice, expressing exclusively human sickle hemoglobin, were also used. These mice were age-matched, adult male homozygotes [SS^−/−, consisting of a transgene and two targeted gene deletions: (Tg (Hu-miniLCR alpha 1G gamma A gamma delta beta s) Hba0//Hba0 Hbb0//Hbb00) and heterozygotes (SS^−/+, SS^−/− genotype except Hbb0//Hbb+), developed on a mixed-strain background (mouse strains FVB/N, 129, DBA/2, C57BL/6, Black Swiss)^94,95.
Function experiments. The tunica albuginea was cut longitudinally, starting at the most proximal point of the corpus cavernosum (CC) toward the penile shaft, and the erectile tissue was partially dissected free from the tunica. One strip of tissue (0.3×0.3×3 mm) was obtained from each corpus cavernosum. The contractility of each isolated corpus cavernosum smooth muscle cells (CCSM) strip was measured using an isometric force transducer (AD Instrument Inc., Georgia, Vt., USA). The strip was mounted in a thermostatically controlled tissue bath containing aerated PSS (mM: 119 NaCl, 4.7 KCl, 24 NaHCO 3, 1.2 KH2PO4, 2.5 CaCl2, 1.2 MgSO4, 0.023 EDTA, and 11 glucose; 5 ml volume, 95% O2 and 5% CO2, 37° C.) and stretched to a resting tension of 0.1 mN. The contractile responses of the strips were analysed by adding 10 μM phenylephrine to the bath, and force changes were recorded in response to drug application and to electrical field stimulation. The particular electrical field stimulation parameters of 0-30V, 30 HZ with a pulse width of approximately 0.5 ms, are commonly used in the mice. […] The changes of cAMP and cGMP contents in CC strips were subsequently measured by commercial enzyme immunoassay kit (Amersham Pharmacia) (see below).

[2] = tested on: corpus cavernosal strips (CCS); experiment: cAMP levels in isolated CCS (penile organ culture) in response to adenosine; type: cell-based, mouse
Procedure: FIG. 17. A2BR signaling is required for adenosine-mediated corpus cavernosal strips (CCS) relaxation. (a) CCS of wild type mice were treated with different concentrations of theophiline (1-10 μM) in the presence or absence of adenosine (100 μM). The force changes were measured by force transducer. Data are expressed as mean±SE. *p<0.05, adenosine treated versus the control, **p<0.05, theophiline treated versus the untreated, N=5. (b) CCS from wild type, A2AR, A1R A2BR and A3R-deficient mice were treated with different concentrations of adenosine. The relaxation was measured by force transducer. Data are expressed as mean±SE. *p<0.05, adenosine treated versus the wild type. […] 10 min after treatment, cellular extracts were collected and cAMP levels were measured by using a commercial enzyme immunoassay kit (Amersham Pharmacia). Data are expressed as mean±SE. *p<0.05, adenosine treated versus the control without treatment; **p<0.05, adenosine treated with MRS1706 versus the adenosine treated alone; ***p<0.05, CCS of A2BR-deficient mice treated with adenosine versus the CCS of wild type mice treated with adenosine. […]
In vitro corpus cavernosum tissue culture. […] Subsequently cavernosal strips were removed at and immediately frozen in liquid nitrogen for phosphorylation of myosin light chain determined by western blot analysis (see below). […]

[3] = CCS of SCD transgenic mice versus untreated CCS

SMILES	force, duration and area under baseline of EFS-induced relaxation [1, 3]	cAMP levels ([2]; wild type penile organ culture, 10 min)	force, duration and area under baseline of EFS-induced relaxation ([1]; CCS of the controls)	adenosine-mediated induction of cAMP was inhibited ([2]; CCS, MRS1706 10 μM, L-NAME 100 μM)
Nc1nc(NCCc2ccc(O)cc2)nc2nc(-c3ccco3)nn12 [ZM241385]	not	–	–	–
Nc1ncnc2c1ncn2[C@@H]1O[C@H](CO)[C@@H](O)[C@H]1O [adenosine]	–	induced cAMP levels in a dose-dependent manner	–	–
CCCn1c(=O)c2[nH]c(-c3ccc(OCC(=O)Nc4ccc(C(C)=O)cc4)cc3)nc2n(CCC)c1=O [MRS1706]	reduced the force, duration and area under baseline	–	decreased the force, duration and area under baseline	inhibited
